The conditions of series [1]: synthetic Dolastatin 15; cited from earlier work.
Series [2] relates to P388 lymphocytic leukemia (PS system) cell line. The following applies: National Cancer Institute's P388 (PS system); cited from earlier work.
Series [3] relates to HT-29 colon carcinoma cells. It is filed as cell-based.

Regarding Dolastatin 15, the “solubility in aqueous systems” value in series [1] is “poor solubility”. In series [2], the “inhibition of growth of P388 cell line” value is given as “markedly inhibits the growth”.

In the case of “Me2Aib-Val-MeVal-Pro-Pro-NHBn [Compound 3]”, in series [3], the concentration for half-maximal inhibition (IC50) was 35 nM. This lies in the double-digit nanomolar range. Same read-out and setting: the figure for Xad Val Xaa Pro Xap [Compound 13] is 1 nM; for Xae Val Xaa Pro Xab [Compound 8] it is 510 nM; for Xam Val Xaa Pro Xab [Compound 10] it is 130 nM. In the case of Xao Val Xaa Pro Xab [Compound 12], the midpoint of inhibition in series [3], the IC50, lay at 370 nM. Xaq Val Xaa Pro Xab [Compound 14]: the IC50 in series [3] is 1.5 nM.

In turn, Xar Val Xaa Pro Xab [Compound 15] had an IC50 in series [3] of 170 nM. This IC50 lies about 110-fold higher than the previous one. As to Xas Val Xaa Pro Xab [Compound 16], the half-inhibitory concentration (IC50) in series [3] was determined as 0.73 nM. Against the preceding substance, the IC50 is about 230-fold lower.

Xat Val Xaa Pro Xab [Compound 17] returned an IC50 in series [3] of 63 nM. On the same count and under the same terms, the figure for Xat Val Xaa Pro Xab [Compound 18] is 8.8 nM; for Xau Val Xaa Pro Xab [Compound 76] it is 0.23 nM; for Xau Val Xaa Pro Xab [Compound 77] it is 7.2 nM. For Xau Val Xaa Pro Xbp [Compound 73], in series [3], half-maximal inhibition (IC50) was put at 1.4 nM. Compared with the last substance, the IC50 is about 5.1-fold lower. The same measure, in the same setting: in the case of Xau Val Xaa Pro Xbp [Compound 96] it was 1.7 nM; in that of Xau Val Xaa Pro Xbp [Compound 97], 32 nM; in that of Xau Val Xaa Pro Xbx [Compound 74], 51 nM. Still for that read-out and setting: the figure for Xau Val Xaa Pro Xcb [Compound 78] is 4.3 nM.

Xau Val Xaa Pro Xcc [Compound 90] showed an IC50 in series [3] of 0.93 nM. This IC50 lies about 4.6-fold lower than the previous one. Consider Xau Val Xaa Pro Xcd [Compound 91], for which the half-inhibitory concentration (IC50) in series [3] was 0.83 nM. This IC50 and that of the substance before are within 1.5-fold of each other. The same measure, in the same setting: in the case of Xaw Val Xaa Pro Xbn [Compound 45] it was 56 nM; in that of Xaw Val Xaa Pro Xbp [Compound 48], 25 nM. The same measure, in the same setting: in the case of Xaw Val Xaa Pro Xbq [Compound 51] it was 46 nM.

In series [3], Xaw Val Xaa Pro Xbr [Compound 52] gave an IC50 of 340 nM. Same read-out and setting: in the case of Xaw Val Xaa Pro Xbx [Compound 66] it was 340 nM; in that of Xax Val Xaa Pro Xab [Compound 22], 640 nM; in that of Xay Val Xaa Pro Xab [Compound 24], 28 nM. For the substance Xba Val Xaa Pro Xab [Compound 27], in series [3], the concentration for half-maximal inhibition (IC50) turned out to be 37 nM. In turn, Xba Val Xaa Pro Xbp [Compound 100] registered an IC50 in series [3] of 2300 nM. The substance Xba Val Xaa Pro Xbp [Compound 101] showed a half-maximal inhibitory concentration (IC50) in series [3] of 2100 nM. This IC50 and that of the substance before are within 1.5-fold of each other.

Xba Val Xaa Pro Xcb [Compound 92] showed an IC50 in series [3] of 1500 nM. As for Xba Val Xaa Pro Xcb [Compound 93], the half-inhibitory concentration (IC50) in series [3] is 1800 nM.

As to Xba Val Xaa Pro Xcc [Compound 102], the half-inhibitory concentration (IC50) in series [3] amounted to 120 nM. Still for that read-out and setting: in the case of Xba Val Xaa Pro Xcc [Compound 103] it was 110 nM; in that of Xba Val Xaa Pro Xcd [Compound 104], 3500 nM. The same measure, in the same setting: the figure for Xbb Val Xaa Pro Xab [Compound 28] is 49 nM; for Xbc Val Xaa Pro Xab [Compound 29] it is 36 nM.

Xbd Val Xaa Pro Xab [Compound 30] had a concentration for half-maximal inhibition (IC50) in series [3] of 6.1 nM. On the same count and under the same terms, in the case of Xbd Val Xaa Pro Xab [Compound 31] it was 200 nM.

In turn, Xbe Val Xaa Pro Xab [Compound 32] returned an IC50 in series [3] of 850 nM. Xbe Val Xaa Pro Xab [Compound 33] returned an IC50 in series [3] of 1200 nM. For the substance Xbf Val Xaa Pro Xab [Compound 34], in series [3], the midpoint of inhibition, the IC50, lay at 5 nM. In series [3], Xbf Val Xaa Pro Xab [Compound 43] returned a half-inhibitory concentration (IC50) of 59 nM. Xbg Val Xaa Pro Xab [Compound 35]: the IC50 in series [3] worked out at 140 nM. As for Xbh Val Xaa Pro Xab [Compound 36], the half-maximal inhibitory concentration (IC50) in series [3] is 6.2 nM. Still for that read-out and setting: in the case of Xbh Val Xaa Pro Xab [Compound 37] it was 190 nM. Same read-out and setting: the figure for Xbi Val Xaa Pro Xab [Compound 38] is 730 nM.

Turning to Xbi Val Xaa Pro Xab [Compound 39], inhibition in series [3] was half-maximal at 25 nM (IC50).

In series [3], Xbi Val Xaa Pro Xbx [Compound 75] registered a half-maximal inhibitory concentration (IC50) of 850 nM. Xbi Val Xaa Pro Xcb [Compound 79] had a half-maximal inhibitory concentration (IC50) in series [3] of 1700 nM.

Xbi Val Xaa Pro Xcb [Compound 80] registered an IC50 in series [3] of 67 nM.

In series [3], Xbi Val Xaa Pro Xcc [Compound 81] displayed an IC50 of 130000 nM. Against the preceding substance, the IC50 is about 1900-fold higher. For the substance Xbi Val Xaa Pro Xcc [Compound 82], the half-maximal inhibitory concentration (IC50) in series [3] worked out at 11 nM.

In series [3], Xbi Val Xaa Pro Xcd [Compound 83] came in with an IC50 of 130 nM. Against the preceding substance, the IC50 is about 12-fold higher. Take Xbi Val Xaa Pro Xcd [Compound 98]: in series [3], inhibition was half-maximal at 6 nM (IC50). Regarding Xbk Val Xaa Pro Xab [Compound 40], in series [3], the IC50 was 560 nM.

In series [3], Xbk Val Xaa Pro Xab [Compound 41] gave a half-maximal inhibitory concentration (IC50) of 7300 nM. In series [3], Xbk Val Xaa Pro Xcc [Compound 84] returned an IC50 of 1200 nM. In series [3], Xbk Val Xaa Pro Xcc [Compound 85] yielded a half-inhibitory concentration (IC50) of 9500 nM. Same read-out and setting: the figure for Xbk Val Xaa Pro Xcd [Compound 99] is 3800 nM; for Xbl Val Xaa Pro Xab [Compound 42] it is 340 nM.

In series [3], Xbl Val Xaa Pro Xab [Compound 54] displayed a half-inhibitory concentration (IC50) of 4.2 nM.

Consider Xbl Val Xaa Pro Xab [Compound 55], for which, in series [3], 56 nM corresponded to half-maximal inhibition (IC50). With Xbm Val Xaa Pro Xab [Compound 44], in series [3], the IC50 was 48 nM. This IC50 and that of the substance before are within 1.5-fold of each other. As to Xbo Val Xaa Pro Xbn [Compound 46], the IC50 in series [3] came out at 720 nM. Still for that read-out and setting: in the case of Xbo Val Xaa Pro Xbn [Compound 47] it was 23 nM.

Turning to Xbo Val Xaa Pro Xbp [Compound 49], in series [3], the half-maximal inhibitory concentration (IC50) turned out to be 88 nM. Compared with the last substance, the IC50 is about 3.8-fold higher. The same measure, in the same setting: the figure for Xbo Val Xaa Pro Xbp [Compound 50] is 89 nM.

The substance Xbo Val Xaa Pro Xbp [Compound 94] gave an IC50 in series [3] of 3000 nM.

Xbo Val Xaa Pro Xbp [Compound 95] had an IC50 in series [3] of 11 nM. Compared with the last substance, the IC50 is about 270-fold lower. Still for that read-out and setting: in the case of Xbo Val Xaa Pro Xbq [Compound 64] it was 1700 nM; in that of Xbo Val Xaa Pro Xbq [Compound 65], 97 nM; in that of Xbo Val Xaa Pro Xbr [Compound 62], 99 nM. On the same count and under the same terms, in the case of Xbo Val Xaa Pro Xbr [Compound 63] it was 56 nM; in that of Xbo Val Xaa Pro Xbx [Compound 72], 120 nM; in that of Xbs Val Xaa Pro Xbt [Compound 53], 5 nM. In turn, Xbs Val Xaa Pro Xbt [Compound 60] gave an IC50 in series [3] of 1.8 nM. Xbv Val Xaa Pro Xab [Compound 57] showed an IC50 in series [3] of 25 nM. This IC50 is about 14-fold higher than that of the substance before. Still for that read-out and setting: in the case of Xbw Val Xaa Pro Xab [Compound 58] it was 63 nM. Still for that read-out and setting: the figure for Xbw Val Xaa Pro Xab [Compound 59] is 190 nM; for Xby Val Xaa Pro Xab [Compound 67] it is 340 nM. For the substance Xbz Val Xaa Pro Xab [Compound 68], the midpoint of inhibition in series [3], the IC50, lay at 420 nM. The same measure, in the same setting: in the case of Xca Val Xaa Pro Xab [Compound 70] it was 7100 nM; in that of Xce Val Xaa Pro Xab [Compound 105], 18 nM.

For the substance Xcf Val Xaa Pro Xab [Compound 106], half-maximal inhibition in series [3] (IC50) was put at 97 nM. Same read-out and setting: the figure for Xcg Val Xaa Pro Xab [Compound 108] is 7100 nM; for “[N,N-Dimethyl-2-ethyl-2-phenylglycyl]-Val-MeVal-Pro-Pro-NHBn×HCl [Compound 4]” it is 1.2 nM. On the same count and under the same terms, in the case of “[N-Methyl-D-Pro]-Val-MeVal-Pro-Pro-NHBn [Compound 5]” it was 5 nM. On the same count and under the same terms, the figure for “[N-Methyl-D-piperidine-2-carbonyl]-Val-MeVal-Pro-Pro-NHBn [Compound 2]” is 0.68 nM; for “[N-Methyl-L-piperidine-2-carbonyl]-Val-MeVal-Pro-Pro-NHBn [Compound 1]” it is 47 nM.

These data come from patent publication US6458765B1, “Dolastatin 15 derivatives” (BASF Aktiengesellschaft, priority 1997, dated 2002).
